Data as given in paper PMC11882969 (Nature Communications, 2025).
Where “and” joins values, the source holds several entries; their conditions need not be identical. Equal entries are not always repeated.

Legend:
Assay type in all cases: cell-based
[1] = biological target: panel of 320 non-olfactory GPCRs (Homo sapiens, UniProt P21554)
[2] = biological target: panel of 320 non-olfactory GPCRs (Homo sapiens, UniProt P21728)
[3] = biological target: panel of 320 non-olfactory GPCRs (Homo sapiens, UniProt P25025)
[4] = biological target: panel of 320 non-olfactory GPCRs (Homo sapiens, UniProt P25089)
[5] = biological target: panel of 320 non-olfactory GPCRs (Homo sapiens, UniProt P25105)
[6] = biological target: panel of 320 non-olfactory GPCRs (Homo sapiens, UniProt P28222)
[7] = biological target: panel of 320 non-olfactory GPCRs (Homo sapiens, UniProt P28335)
[8] = biological target: panel of 320 non-olfactory GPCRs (Homo sapiens, UniProt P30542)
[9] = biological target: panel of 320 non-olfactory GPCRs (Homo sapiens, UniProt P32745)
[10] = biological target: panel of 320 non-olfactory GPCRs (Homo sapiens, UniProt P33032)
[11] = biological target: panel of 320 non-olfactory GPCRs (Homo sapiens, UniProt P34969)
[12] = biological target: panel of 320 non-olfactory GPCRs (Homo sapiens, UniProt P34972)
[13] = biological target: panel of 320 non-olfactory GPCRs (Homo sapiens, UniProt P41231)
[14] = biological target: panel of 320 non-olfactory GPCRs (Homo sapiens, UniProt P46663)
[15] = biological target: panel of 320 non-olfactory GPCRs (Homo sapiens, UniProt P47871)
[16] = biological target: panel of 320 non-olfactory GPCRs (Homo sapiens, UniProt P48145)
[17] = biological target: panel of 320 non-olfactory GPCRs (Homo sapiens, UniProt P50052)
[18] = biological target: panel of 320 non-olfactory GPCRs (Homo sapiens, UniProt P51677)
[19] = biological target: panel of 320 non-olfactory GPCRs (Homo sapiens, UniProt P51685)
[20] = biological target: panel of 320 non-olfactory GPCRs (Homo sapiens, UniProt P61073)
[21] = biological target: panel of 320 non-olfactory GPCRs (Homo sapiens, UniProt Q01726)
[22] = biological target: panel of 320 non-olfactory GPCRs (Homo sapiens, UniProt Q13324)
[23] = biological target: panel of 320 non-olfactory GPCRs (Homo sapiens, UniProt Q13585)
[24] = biological target: panel of 320 non-olfactory GPCRs (Homo sapiens, UniProt Q15760)
[25] = biological target: panel of 320 non-olfactory GPCRs (Homo sapiens, UniProt Q5UAW9)
[26] = biological target: panel of 320 non-olfactory GPCRs (Homo sapiens, UniProt Q6U736)
[27] = biological target: panel of 320 non-olfactory GPCRs (Homo sapiens, UniProt Q86VZ1)
[28] = biological target: panel of 320 non-olfactory GPCRs (Homo sapiens, UniProt Q8TDV2)
[29] = biological target: panel of 320 non-olfactory GPCRs (Homo sapiens, UniProt Q96LB1)
[30] = biological target: panel of 320 non-olfactory GPCRs (Homo sapiens, UniProt Q99680)
[31] = biological target: panel of 320 non-olfactory GPCRs (Homo sapiens, UniProt Q9BXC1)
[32] = biological target: panel of 320 non-olfactory GPCRs (Homo sapiens, UniProt Q9BY21)
[33] = biological target: panel of 320 non-olfactory GPCRs (Homo sapiens, UniProt Q9BZJ6)
[34] = biological target: panel of 320 non-olfactory GPCRs (Homo sapiens, UniProt Q9GZN0)
[35] = biological target: panel of 320 non-olfactory GPCRs (Homo sapiens, UniProt Q9HBW0)
[36] = biological target: panel of 320 non-olfactory GPCRs (Homo sapiens, UniProt Q9HBW9)
[37] = biological target: panel of 320 non-olfactory GPCRs (Homo sapiens, UniProt Q9NS66)

panel of 320 non-olfactory GPCRs (Homo sapiens, UniProt Q9HBW9), sequence (Q9HBW9 20-690): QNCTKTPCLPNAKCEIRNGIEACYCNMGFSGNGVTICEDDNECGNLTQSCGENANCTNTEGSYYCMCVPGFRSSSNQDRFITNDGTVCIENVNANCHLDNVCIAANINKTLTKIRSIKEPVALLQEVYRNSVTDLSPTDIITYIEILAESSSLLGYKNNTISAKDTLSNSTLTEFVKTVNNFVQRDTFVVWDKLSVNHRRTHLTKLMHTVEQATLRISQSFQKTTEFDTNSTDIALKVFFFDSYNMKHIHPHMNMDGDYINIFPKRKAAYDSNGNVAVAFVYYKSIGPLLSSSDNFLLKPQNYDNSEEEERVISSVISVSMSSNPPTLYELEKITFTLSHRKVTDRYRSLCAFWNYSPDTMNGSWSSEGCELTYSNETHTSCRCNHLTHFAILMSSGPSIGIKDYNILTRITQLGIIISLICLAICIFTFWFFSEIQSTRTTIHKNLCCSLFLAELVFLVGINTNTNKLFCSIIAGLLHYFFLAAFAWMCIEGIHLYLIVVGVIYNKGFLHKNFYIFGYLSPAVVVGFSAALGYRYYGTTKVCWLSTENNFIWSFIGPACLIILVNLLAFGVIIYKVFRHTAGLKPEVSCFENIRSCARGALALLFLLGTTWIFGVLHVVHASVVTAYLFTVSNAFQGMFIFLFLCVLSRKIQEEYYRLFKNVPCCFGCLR
panel of 320 non-olfactory GPCRs (Homo sapiens, UniProt P46663), sequence (P46663 whole entry): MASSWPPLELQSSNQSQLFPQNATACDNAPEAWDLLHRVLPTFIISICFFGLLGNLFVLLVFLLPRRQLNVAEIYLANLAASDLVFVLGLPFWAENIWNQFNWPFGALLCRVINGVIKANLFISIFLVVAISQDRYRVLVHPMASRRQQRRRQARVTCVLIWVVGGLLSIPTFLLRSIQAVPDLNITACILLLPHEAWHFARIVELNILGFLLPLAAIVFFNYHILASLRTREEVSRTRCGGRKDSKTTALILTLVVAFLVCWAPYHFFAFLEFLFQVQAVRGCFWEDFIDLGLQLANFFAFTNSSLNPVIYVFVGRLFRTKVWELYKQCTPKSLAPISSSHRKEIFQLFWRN
panel of 320 non-olfactory GPCRs (Homo sapiens, UniProt P47871), sequence (P47871 26-477): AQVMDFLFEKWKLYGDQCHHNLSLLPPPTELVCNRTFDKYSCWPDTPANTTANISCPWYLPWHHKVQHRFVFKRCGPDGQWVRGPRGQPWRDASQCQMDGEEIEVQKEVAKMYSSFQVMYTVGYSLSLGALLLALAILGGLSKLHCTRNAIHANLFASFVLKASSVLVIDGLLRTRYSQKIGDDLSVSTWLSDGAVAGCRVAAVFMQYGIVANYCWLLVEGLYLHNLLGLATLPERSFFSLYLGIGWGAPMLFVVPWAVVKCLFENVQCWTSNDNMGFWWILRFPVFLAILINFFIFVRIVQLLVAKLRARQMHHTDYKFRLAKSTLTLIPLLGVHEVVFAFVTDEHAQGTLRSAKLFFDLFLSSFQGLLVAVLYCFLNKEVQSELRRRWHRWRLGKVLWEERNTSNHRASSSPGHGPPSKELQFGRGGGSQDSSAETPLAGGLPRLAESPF
panel of 320 non-olfactory GPCRs (Homo sapiens, UniProt Q86VZ1), sequence (Q86VZ1 whole entry): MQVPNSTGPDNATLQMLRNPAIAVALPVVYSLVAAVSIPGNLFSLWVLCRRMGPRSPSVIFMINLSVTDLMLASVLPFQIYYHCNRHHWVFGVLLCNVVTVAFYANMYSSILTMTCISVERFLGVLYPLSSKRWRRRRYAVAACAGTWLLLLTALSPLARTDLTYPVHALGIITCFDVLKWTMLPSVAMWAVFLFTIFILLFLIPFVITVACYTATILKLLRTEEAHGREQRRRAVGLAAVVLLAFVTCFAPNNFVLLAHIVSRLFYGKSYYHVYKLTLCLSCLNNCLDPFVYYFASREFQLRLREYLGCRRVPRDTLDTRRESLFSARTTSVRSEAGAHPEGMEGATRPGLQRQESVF
panel of 320 non-olfactory GPCRs (Homo sapiens, UniProt Q5UAW9), sequence (Q5UAW9 whole entry): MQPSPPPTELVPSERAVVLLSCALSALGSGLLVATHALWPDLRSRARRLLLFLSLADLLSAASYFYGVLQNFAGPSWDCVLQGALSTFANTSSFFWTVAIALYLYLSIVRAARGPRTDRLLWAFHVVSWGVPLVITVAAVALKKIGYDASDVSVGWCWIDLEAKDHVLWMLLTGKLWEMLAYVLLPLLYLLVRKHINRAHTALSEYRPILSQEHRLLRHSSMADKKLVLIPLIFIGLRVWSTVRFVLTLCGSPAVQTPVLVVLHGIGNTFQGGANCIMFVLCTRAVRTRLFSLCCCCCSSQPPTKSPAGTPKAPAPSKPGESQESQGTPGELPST
panel of 320 non-olfactory GPCRs (Homo sapiens, UniProt P48145), sequence (P48145 whole entry): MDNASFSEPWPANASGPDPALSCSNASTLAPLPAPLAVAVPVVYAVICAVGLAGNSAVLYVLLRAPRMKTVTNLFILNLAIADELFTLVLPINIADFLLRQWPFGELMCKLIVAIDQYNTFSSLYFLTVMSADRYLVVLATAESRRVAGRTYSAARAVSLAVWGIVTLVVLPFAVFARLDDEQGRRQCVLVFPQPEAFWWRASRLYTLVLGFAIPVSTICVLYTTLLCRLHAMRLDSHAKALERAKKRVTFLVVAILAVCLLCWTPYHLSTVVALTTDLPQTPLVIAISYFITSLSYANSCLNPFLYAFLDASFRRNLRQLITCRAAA
panel of 320 non-olfactory GPCRs (Homo sapiens, UniProt P25105), sequence (P25105 whole entry): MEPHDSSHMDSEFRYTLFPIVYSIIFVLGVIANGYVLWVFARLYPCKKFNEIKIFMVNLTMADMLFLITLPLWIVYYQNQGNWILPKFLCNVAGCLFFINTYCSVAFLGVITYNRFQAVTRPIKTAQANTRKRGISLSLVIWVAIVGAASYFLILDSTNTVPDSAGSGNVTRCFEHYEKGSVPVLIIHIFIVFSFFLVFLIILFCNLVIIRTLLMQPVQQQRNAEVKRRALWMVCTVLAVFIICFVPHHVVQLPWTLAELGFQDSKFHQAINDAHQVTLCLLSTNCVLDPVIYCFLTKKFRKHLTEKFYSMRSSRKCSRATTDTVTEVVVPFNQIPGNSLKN
panel of 320 non-olfactory GPCRs (Homo sapiens, UniProt P21728), sequence (P21728 whole entry): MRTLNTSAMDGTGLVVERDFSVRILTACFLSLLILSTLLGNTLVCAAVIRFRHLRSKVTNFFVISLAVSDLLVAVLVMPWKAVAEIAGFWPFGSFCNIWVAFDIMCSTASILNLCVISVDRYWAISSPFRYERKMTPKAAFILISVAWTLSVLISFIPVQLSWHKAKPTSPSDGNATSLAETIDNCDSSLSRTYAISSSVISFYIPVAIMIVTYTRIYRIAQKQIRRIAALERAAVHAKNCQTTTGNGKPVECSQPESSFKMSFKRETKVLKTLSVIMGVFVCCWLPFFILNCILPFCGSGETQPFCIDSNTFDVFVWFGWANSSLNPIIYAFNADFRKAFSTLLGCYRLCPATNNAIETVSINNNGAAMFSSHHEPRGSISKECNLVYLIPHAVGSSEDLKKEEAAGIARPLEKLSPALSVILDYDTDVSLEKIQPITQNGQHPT
panel of 320 non-olfactory GPCRs (Homo sapiens, UniProt P51685), sequence (P51685 whole entry): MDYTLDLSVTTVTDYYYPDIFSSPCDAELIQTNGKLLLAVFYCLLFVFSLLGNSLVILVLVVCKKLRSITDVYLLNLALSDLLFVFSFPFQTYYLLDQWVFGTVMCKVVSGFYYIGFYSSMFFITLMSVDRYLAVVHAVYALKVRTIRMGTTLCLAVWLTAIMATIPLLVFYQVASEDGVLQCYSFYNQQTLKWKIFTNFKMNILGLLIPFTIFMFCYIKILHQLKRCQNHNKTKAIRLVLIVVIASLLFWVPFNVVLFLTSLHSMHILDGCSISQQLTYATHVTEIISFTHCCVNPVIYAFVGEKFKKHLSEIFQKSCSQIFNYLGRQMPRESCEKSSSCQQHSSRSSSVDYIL
panel of 320 non-olfactory GPCRs (Homo sapiens, UniProt Q9BXC1), sequence (Q9BXC1 whole entry): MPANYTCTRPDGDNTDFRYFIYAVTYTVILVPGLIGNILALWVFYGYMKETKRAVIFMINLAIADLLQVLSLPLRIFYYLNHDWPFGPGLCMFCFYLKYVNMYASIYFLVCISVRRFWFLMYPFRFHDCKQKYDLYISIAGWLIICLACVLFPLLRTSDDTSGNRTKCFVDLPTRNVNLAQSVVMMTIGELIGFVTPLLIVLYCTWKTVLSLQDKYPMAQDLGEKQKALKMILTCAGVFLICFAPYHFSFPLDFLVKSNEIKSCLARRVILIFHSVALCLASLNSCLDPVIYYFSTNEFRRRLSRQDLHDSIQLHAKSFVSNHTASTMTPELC
panel of 320 non-olfactory GPCRs (Homo sapiens, UniProt P34972), sequence (P34972 whole entry): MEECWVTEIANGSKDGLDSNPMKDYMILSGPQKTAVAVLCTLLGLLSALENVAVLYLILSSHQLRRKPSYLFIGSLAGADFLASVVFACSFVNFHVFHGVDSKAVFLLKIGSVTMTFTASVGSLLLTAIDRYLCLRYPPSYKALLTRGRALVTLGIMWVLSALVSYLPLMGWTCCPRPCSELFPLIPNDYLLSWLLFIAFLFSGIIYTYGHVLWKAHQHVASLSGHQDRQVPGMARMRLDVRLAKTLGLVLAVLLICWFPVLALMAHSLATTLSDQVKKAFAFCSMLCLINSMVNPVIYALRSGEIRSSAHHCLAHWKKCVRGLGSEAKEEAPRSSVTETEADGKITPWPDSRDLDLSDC
panel of 320 non-olfactory GPCRs (Homo sapiens, UniProt Q8TDV2), sequence (Q8TDV2 whole entry): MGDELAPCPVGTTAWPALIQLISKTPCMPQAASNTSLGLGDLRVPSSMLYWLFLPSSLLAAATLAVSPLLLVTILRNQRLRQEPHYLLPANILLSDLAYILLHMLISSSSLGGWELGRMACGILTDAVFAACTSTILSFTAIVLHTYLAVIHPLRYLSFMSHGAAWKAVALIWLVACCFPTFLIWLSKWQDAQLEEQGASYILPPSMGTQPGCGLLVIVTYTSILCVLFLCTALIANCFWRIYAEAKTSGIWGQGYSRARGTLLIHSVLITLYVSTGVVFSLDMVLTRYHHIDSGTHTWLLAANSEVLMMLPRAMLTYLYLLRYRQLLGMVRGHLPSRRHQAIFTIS

Compound	Fold of Basal RLU [1]	Fold of Basal RLU [2]	Fold of Basal RLU [3]	Fold of Basal RLU [4]	Fold of Basal RLU [5]	Fold of Basal RLU [6]	Fold of Basal RLU [7]	Fold of Basal RLU [8]	Fold of Basal RLU [9]	Fold of Basal RLU [10]	Fold of Basal RLU [11]	Fold of Basal RLU [12]	Fold of Basal RLU [13]	Fold of Basal RLU [14]	Fold of Basal RLU [15]	Fold of Basal RLU [16]	Fold of Basal RLU [17]	Fold of Basal RLU [18]	Fold of Basal RLU [19]	Fold of Basal RLU [20]	other results
COC(=O)[C@@](C)(NC(=O)c1cc(C)n(-c2cccc(C(F)(F)F)c2)n1)c1cccs1 [‘1350]	5.2 and 4.9 and 5.3	0.9 and 1.1 and 0.8	0.8 fold and 1 fold and 1.1 fold	1 fold and 1.1 fold	1.3 fold and 0.9 fold and 1.7 fold	1.3 fold and 1.1 fold and 1.2 fold	1.6 fold and 1 fold and 1.3 fold and 1.2 fold	1.2 fold and 1.7 fold and 1.6 fold and 2.1 fold	0.8 and 0.9 and 0.7	1.3 fold and 1 fold and 1.2 fold and 1.1 fold	0.9 fold and 1.4 fold and 1 fold	8.2 and 8.7 and 8.6	1.3 fold and 1.4 fold and 1 fold	1.6 and 1.3 and 1.1	0.8 and 1 and 1.2 and 1.1	1.2 and 1.8 and 1.3 and 1.4	1.1 fold and 1 fold	0.9 fold and 1 fold and 1.2 fold	1.6 and 1.3 and 1.1 and 1	1.2 fold and 1.1 fold and 1.3 fold	Fold of Basal RLU [21]: 0.7 and 0.6 and 1; Fold of Basal RLU [22]: 0.8 and 0.9; Fold of Basal RLU [23]: 0.9 and 0.7 and 1.3 and 1; Fold of Basal RLU [24]: 0.9 fold and 1.2 fold and 1 fold; Fold of Basal RLU [25]: 1.2 and 1.1 and 1 and 1.6; Fold of Basal RLU [26]: 2.3 fold and 1.9 fold; Fold of Basal RLU [27]: 0.6 fold and 1.1 fold and 0.8 fold and 0.7 fold; Fold of Basal RLU [28]: 1.2 and 0.6 and 0.9; Fold of Basal RLU [29]: 1.7 fold and 1.5 fold and 1 fold and 1.1 fold; Fold of Basal RLU [30]: 0.7 fold and 0.9 fold and 0.8 fold; Fold of Basal RLU [31]: 0.9 and 1.3 and 1; Fold of Basal RLU [32]: 1 fold and 0.9 fold and 1.1 fold; Fold of Basal RLU [33]: 1.1 fold and 1 fold and 0.8 fold; Fold of Basal RLU [34]: 1.5 and 1.4 and 1.3; Fold of Basal RLU [35]: 0.7 and 0.8 and 1.1 and 0.6; Fold of Basal RLU [36]: 1.3 fold and 1.6 fold and 2.3 fold and 1.8 fold; Fold of Basal RLU [37]: 1.6 and 1.3 and 1.7
Cc1cc(C(=O)NC(C)(c2ccco2)c2ccco2)nn1-c1cccc(C(F)(F)F)c1 [‘4936]	5.5 and 5.4 and 5.6	0.7 and 0.9 and 0.8	1.8 fold and 1.3 fold and 1.4 fold and 1.6 fold	1.2 fold and 1.3 fold and 1.8 fold	1.1 fold and 1.5 fold and 1.8 fold	1.4 fold and 1.2 fold and 1.3 fold	1.5 fold and 1.3 fold and 1.1 fold	6.4 fold and 5.8 fold and 6.3 fold and 7.4 fold	1.3 and 0.7 and 1	1.1 fold and 1.2 fold and 1.3 fold and 1 fold	1 fold and 1.5 fold and 1.8 fold	12.4 and 11.8 and 12 and 10.8	0.9 fold and 1.2 fold and 1 fold and 1.1 fold	1.3 and 1.1 and 0.9 and 1.4	1.3 and 1.1 and 1.4 and 0.8	0.6 and 1.1 and 0.7	1.1 fold and 1.2 fold and 0.9 fold	1 fold and 0.9 fold and 1.4 fold	1.5 and 1.1 and 1.2 and 0.9	1 fold and 1.3 fold and 1.2 fold	Fold of Basal RLU [21]: 1.2 and 0.8 and 0.7 and 1.1; Fold of Basal RLU [22]: 0.6 and 0.7; Fold of Basal RLU [23]: 0.8 and 0.6 and 0.5 and 0.7; Fold of Basal RLU [24]: 0.8 fold and 1 fold; Fold of Basal RLU [25]: 1.4 and 1.2 and 0.9 and 0.7; Fold of Basal RLU [26]: 1.3 fold and 1.4 fold and 1.1 fold and 1.8 fold; Fold of Basal RLU [27]: 0.5 fold and 0.8 fold; Fold of Basal RLU [28]: 1 and 0.6 and 1.2; Fold of Basal RLU [29]: 1.3 fold and 1.2 fold and 1.7 fold and 1.4 fold; Fold of Basal RLU [30]: 1.3 fold and 1 fold and 1.2 fold and 0.8 fold; Fold of Basal RLU [31]: 1 and 1.1 and 1.3; Fold of Basal RLU [32]: 1 fold and 1.2 fold and 1.1 fold and 1.3 fold; Fold of Basal RLU [33]: 1.1 fold and 1.2 fold and 0.8 fold and 0.9 fold; Fold of Basal RLU [34]: 1.5 and 1.4 and 1.6; Fold of Basal RLU [35]: 0.7 and 0.8 and 1 and 1.2; Fold of Basal RLU [36]: 1.6 fold and 1.5 fold and 1.1 fold; Fold of Basal RLU [37]: 1.1 and 1 and 1.7 and 1.3
